Source: patent US12173018B2, “Penicillin-binding protein inhibitors” (priority 2018, dated 2024)
Converted amounts (≈) assume the structure as drawn. Read-outs that look alike come from different tables or passages of the source.

How the values were obtained:
[1] = biological target: E. coli PBP3 (Escherichia coli (strain K12), UniProt P0AD68); test: E. coli PBP3 Bocillin-FL fluorescence polarization competition binding assay
Outline: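 Purified E. coli PBP (1.5 μM final) competed with inhibitor (0-1000 μM) for Bocillin-FL (0.1 μM final) in 50 mM Hepes pH 8.0, 300 mM NaCl, 5% glycerol. Fluorescence polarization (ex 490/em 520 nm) was read continuously for 60 min after Bocillin-FL addition. EC50 was the concentration that reduced Bocillin-FL binding by 50%.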

[2] = test system: engineered strain of Escherichia coli harboring CTX-M15; test: microbe, parasite or virus in culture; format: cell-based; settings: Escherichia coli, read-out: Microbiological Activity (MIC in mg/L), E. coli DH5α/pLBII-CTX-M15, engineered strain producing CTX-M15
[3] = test system: E. coli DH5α empty pLBII vector control strain; test: microbe, parasite or virus in culture; format: cell-based, Escherichia coli; settings: Escherichia coli, read-out: Microbiological Activity (MIC in mg/L), E. coli DH5α/pLBII
Outline: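 MIC was the lowest concentration visibly free of growth after 16–20 h at 37 °C, against 5×10^5 CFU/mL of the empty-pLBII DH5α control strain. Twofold compound dilutions were made in cation-adjusted Mueller-Hinton broth.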

[4] = biological target: E. coli PBP1a (Escherichia coli (strain K12), UniProt P02918); test: Radioligand competition binding assay with 14C-labeled boronic acid probe, PBP1a
Description: To determine the ability of boronic acid-based test PBP inhibitors to bind Penicillin Binding Proteins (PBPs), a radio-labelled boronic acid PBP inhibitor
[drawing 751] was used in competition binding assays to determine boronic acid PBP inhibitor binding to PBP1a or PBP1b from Escherichia coli. PBP1a and PBP1b were purified as described previously (Bertsche, U.; et al., J. Biol. Chem. 2005, 280 (45), 38096-38101; Born, P.; et al., J. Biol. Chem. 2006. 281 (37), 26985-26993). To establish assay conditions for competition binding, an enzyme titration/saturation binding experiment was performed. Saturation binding was performed in a buffer comprised of 20 mM Tris (pH 7.5), 500 mM NaCl and 0.1% (v/v) TritonX-100, with PBP1a/PBP1b at a final concentration of 0.1 μM and Compound A at final concentrations ranging from 0-100 μM. Mixtures were incubated for 60 minutes, then applied to Zeba Spin Desalting columns or plates (ThermoFisher Scientific) and centrifuged at 1000-1500×g for 2 minutes. The flow through, containing PBP bound with Compound A, was recovered and 100 μL mixed with 5 mL of UltimaGold liquid scintillation cocktail (Perkin Elmer), and the radioactivity counted using a Beckman Coulter LS 6500 Multipurpose scintillation counter. PBP binding of Compound A approached saturation at 20 μM of ^14C-labeled probe. The competition binding assay was validated using the beta-lactam ampicillin, with Compound A at a final concentration of 20 μM, PBP1a/PBP1b at a final concentration of 0.1 μM. PBP1a/PBP1b was incubated with ampicillin in a 96-well microplate for 60 minutes, then Compound A was added and the mixtures incubated for an additional 60 minutes. The mixtures were then applied to Zeba Spin desalting plates and centrifuged at 1000×g for 2 minutes. The flow through was recovered and 100 μl mixed with 5 ml of UltimaGold liquid scintillation cocktail and the radioactivity counted. […] Binding assays with boronic acid PBP inhibitors were performed in an identical fashion. The potency of boronic acid PBP inhibitors was reported as the EC50 value.

[5] = biological target: E. coli PBP2 (Escherichia coli (strain K12), UniProt P0AD65); test: E. coli PBP2 Bocillin-FL fluorescence polarization competition binding assay; settings: fluorescence polarization competition binding with Bocillin-FL; read-out: E. coli K12 PBP2 Potency (EC50)
Description: To determine the ability of boronic acid-based test PBP inhibitors to bind Penicillin Binding Proteins (PBPs), Bocillin-FL (fluorescently-labeled penicillin V; ThermoFisher Scientific) was used in a fluorescence polarization (FP) competition binding assay to assess inhibitor binding to PBP2, PBP3 or PBP4 from Escherichia coli. PBPs were cloned and purified as described previously (King, D. T, et al., ACS Infectious Diseases 2015, 1, 175-184). To establish assay conditions for competition binding, an enzyme titration/saturation binding experiment was initially performed. Bocillin-FL was prepared at 0.2 μM in a buffer comprised of 50 mM Hepes (pH 8.0), 300 mM NaCl and 5% (v/v) glycerol. Saturation binding was performed by mixing 40 μl of PBP solutions ranging in concentrations from 0-12 μM with 40 μl of the 0.2 μM Bocillin-FL solution, in individual wells of a black 384-well microplate. FP was measured immediately upon mixing (Excitation, 490 nm; Emission, 520 nm; g-factor, 0.96), using a Cytation3 (BioTek) microplate reader and measured continuously for up to 120 minutes. […] For all PBPs the FP signal approached saturation with 1.5 μM PBP (final concentration). […] Assays (80 μl final volume) were performed with PBPs at a final concentration of 1.5 μM, Bocillin-FL at 0.1 μM and beta-lactam concentrations that ranged from 0-1000 μM. […] Bocillin-FL was added and the FP immediately measured for 60 minutes (90 minutes for PBP2). The beta-lactam potency was reported as the concentration of beta-lactam required to reduce binding of Bocillin-FL by […] (EC50). […] Binding assays for boronic acid PBP inhibitors were performed in an identical fashion.

[6] = test system: K. pneumoniae 848844; test: microbe, parasite or virus in culture; format: cell-based, Klebsiella pneumoniae; settings: Klebsiella pneumoniae; K. pneumoniae 848844 producing SHV-11 and KPC-2; read-out: MIC K. pneumoniae 848844
Outline: (§1)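 Broth microdilution MICs followed CLSI methods in cation-supplemented Mueller-Hinton broth, with 2-fold serial compound dilutions. Log-phase cultures grown 3–5 h were added to a starting inoculum of 5×10^5 CFU/mL and incubated 16–20 h at 37 °C. The MIC was read visually as the lowest concentration with no growth.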

[7] = test system: E. coli AG100; test: Broth microdilution MIC, E. coli AG100 (wild-type parent); format: cell-based; settings: Escherichia coli; wild-type parent E. coli AG100, broth microdilution; read-out: MIC E. coli AG100
Outline: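 Starting inoculum of 5×10^5 CFU/mL, from colonies grown 3-5 h in Mueller-Hinton broth with divalent cations, added to two-fold compound dilution series.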

[8] = test system: P. aeruginosa ATCC 27853; test: Broth microdilution MIC, P. aeruginosa ATCC 27853; format: cell-based; settings: Pseudomonas aeruginosa
Experimental: To determine the ability of test compounds to potentiate the inhibition of the growth of bacterial strains, classic cell based broth microdilution minimum inhibitory concentration (MIC) assays were employed. MIC assays are performed according to CLSI methods except where otherwise noted (CLSI, 2011 and CLSI, 2009). The reference type strain E. coli ATCC 25922, the wild-type parent strain E. coli AG100, the hyper-permeable E. coli 901C and E. coli D22 and the E. coli AG100A strain lacking the acrAB efflux pump encoding genes were used to determine the ability of the PBP inhibitors to penetrate the outer membrane of gram-negative bacteria and inhibit bacterial growth. […] The P. aeruginosa PAO1, P. aeruginosa ATCC 27853 and A. baumannii ATCC 19606, along with the hyper-permeable P. aeruginosa ATCC 35151 and an engineered efflux pump-compromised strain of P. aeruginosa (ΔmexAB-oprM) were used to determine the ability of PBP inhibitors to penetrate the outer membrane of P. aeruginosa and A. baumannii and assess antibacterial activity against these important gram-negative organisms.
Briefly, cryo-preserved bacterial cultures of challenge strains are streaked for isolation on appropriate agar medium, in this case Mueller Hinton II agar. Following incubation to allow growth of the colonies, plates are sealed with parafilm and stored refrigerated for up to two weeks. For preparation of assay inoculum and to ensure low variability, at least 5 colonies are picked from the agar plates with an inoculating loop and aseptically transferred to a culture tube containing 3 mL of Mueller-Hinton Broth (supplemented with divalent cations to required levels based on Manufacturers' certification). The broth culture is grown for 3-5 hours at 37° C. with shaking at 200 rpm. Meanwhile, 2-fold serial dilutions of test compounds are conducted in a 96 well plate with a final volume of 75 μL per well at 2-fold the final desired concentration. After the dilution plates are set up the growing cultures are then diluted in a cuvette containing MH II broth and the optical density is measured at 600 nm. The Inoculum is diluted such that 75 μL of this culture in Mueller-Hinton Broth results in a starting bacterial concentration of 5×10^5 CFU/mL when added to the dilution plates. The plates are incubated for 16-20 hours at 37° C. The MIC values are read visually as the lowest concentration well with no bacterial growth.

[9] = test system: E. coli 901C; test: microbe, parasite or virus in culture; format: cell-based; settings: Escherichia coli; hyper-permeable E. coli 901C, broth microdilution; read-out: MIC E. coli 901C
Outline: as §1

[10] = test system: K. pneumoniae SI-117; test: microbe, parasite or virus in culture; format: cell-based; settings: Klebsiella pneumoniae, SI117, read-out: MIC K. pneumoniae SI-117
Outline: as §1

[11] = test system: E. coli D22; test: microbe, parasite or virus in culture; format: cell-based; settings: Escherichia coli; hyper-permeable E. coli D22, broth microdilution; read-out: MIC E. coli D22
Outline: as §1

[12] = test system: K. pneumoniae UMM; test: microbe, parasite or virus in culture; format: cell-based; settings: Klebsiella pneumoniae; K. pneumoniae UMM producing SHV-5 and KPC-2; read-out: MIC K. pneumoniae UMM
Outline: as §1

[13] = test system: E. coli AG100A; test: microbe, parasite or virus in culture; format: cell-based; settings: Escherichia coli, read-out: MIC E. coli AG100A
Outline: as §1

[14] = test system: P. aeruginosa (ΔmexAB-oprM); test: microbe, parasite or virus in culture; format: cell-based; settings: Pseudomonas aeruginosa, read-out: MIC P. aeruginosa ΔmexAB-OprM
Outline: as §1

[15] = test system: P. aeruginosa ATCC 35151; test: microbe, parasite or virus in culture; format: cell-based; settings: Pseudomonas aeruginosa, ATCC35151; hyper-permeable P. aeruginosa ATCC 35151; read-out: MIC P. aeruginosa ATCC 35151
Outline: as §1

[16] = test system: A. baumannii ATCC 19606; test: Broth microdilution MIC, A. baumannii ATCC 19606; format: cell-based; settings: Acinetobacter baumannii
Outline: as §1

[17] = test system: E. coli ATCC 25922; test: Broth microdilution MIC, E. coli ATCC 25922; format: cell-based; settings: Escherichia coli
Outline: as §1

[18] = ATCC27853, P. aeruginosa ATCC 27853, broth microdilution, read-out: MIC P. aeruginosa ATCC 27853
[19] = ATCC19606, A. baumannii ATCC 19606, broth microdilution, read-out: MIC A. baumannii ATCC 19606
[20] = ATCC25922, E. coli ATCC 25922, broth microdilution, read-out: MIC E. coli 25922

E. coli PBP3, sequence (P0AD68 whole entry): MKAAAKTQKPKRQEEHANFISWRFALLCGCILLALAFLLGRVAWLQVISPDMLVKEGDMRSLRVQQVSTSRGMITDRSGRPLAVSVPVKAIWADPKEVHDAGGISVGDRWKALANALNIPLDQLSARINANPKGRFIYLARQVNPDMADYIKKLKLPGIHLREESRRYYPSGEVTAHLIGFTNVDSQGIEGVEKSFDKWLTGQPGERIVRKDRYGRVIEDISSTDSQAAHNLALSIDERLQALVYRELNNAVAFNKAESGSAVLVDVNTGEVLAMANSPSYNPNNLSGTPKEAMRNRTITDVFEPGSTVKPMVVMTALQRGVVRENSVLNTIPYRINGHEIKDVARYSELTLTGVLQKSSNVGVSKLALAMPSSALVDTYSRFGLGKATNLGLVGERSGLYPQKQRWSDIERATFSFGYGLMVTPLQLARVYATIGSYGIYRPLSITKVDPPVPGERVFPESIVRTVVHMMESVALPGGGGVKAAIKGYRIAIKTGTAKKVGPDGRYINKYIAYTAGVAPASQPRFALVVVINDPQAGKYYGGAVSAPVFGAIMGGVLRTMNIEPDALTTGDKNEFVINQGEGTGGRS
E. coli PBP2, sequence (P0AD65 whole entry): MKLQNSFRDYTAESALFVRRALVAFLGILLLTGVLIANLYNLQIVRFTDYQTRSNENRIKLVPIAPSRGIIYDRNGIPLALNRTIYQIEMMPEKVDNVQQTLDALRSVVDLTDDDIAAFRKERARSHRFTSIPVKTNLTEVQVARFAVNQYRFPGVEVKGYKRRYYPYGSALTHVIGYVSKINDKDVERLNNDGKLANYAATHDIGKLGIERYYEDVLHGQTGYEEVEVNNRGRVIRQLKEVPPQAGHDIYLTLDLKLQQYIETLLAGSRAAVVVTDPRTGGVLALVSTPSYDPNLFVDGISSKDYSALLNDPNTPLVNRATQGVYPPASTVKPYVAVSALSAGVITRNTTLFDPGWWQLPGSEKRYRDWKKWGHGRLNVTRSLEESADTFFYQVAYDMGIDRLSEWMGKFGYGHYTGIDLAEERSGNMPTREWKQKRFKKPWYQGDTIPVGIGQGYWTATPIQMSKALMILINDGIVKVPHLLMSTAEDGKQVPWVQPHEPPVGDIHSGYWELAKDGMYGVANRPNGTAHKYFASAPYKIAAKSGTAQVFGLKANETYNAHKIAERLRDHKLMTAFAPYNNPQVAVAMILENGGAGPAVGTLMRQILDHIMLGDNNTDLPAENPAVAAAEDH
E. coli PBP1a, sequence (P02918 whole entry): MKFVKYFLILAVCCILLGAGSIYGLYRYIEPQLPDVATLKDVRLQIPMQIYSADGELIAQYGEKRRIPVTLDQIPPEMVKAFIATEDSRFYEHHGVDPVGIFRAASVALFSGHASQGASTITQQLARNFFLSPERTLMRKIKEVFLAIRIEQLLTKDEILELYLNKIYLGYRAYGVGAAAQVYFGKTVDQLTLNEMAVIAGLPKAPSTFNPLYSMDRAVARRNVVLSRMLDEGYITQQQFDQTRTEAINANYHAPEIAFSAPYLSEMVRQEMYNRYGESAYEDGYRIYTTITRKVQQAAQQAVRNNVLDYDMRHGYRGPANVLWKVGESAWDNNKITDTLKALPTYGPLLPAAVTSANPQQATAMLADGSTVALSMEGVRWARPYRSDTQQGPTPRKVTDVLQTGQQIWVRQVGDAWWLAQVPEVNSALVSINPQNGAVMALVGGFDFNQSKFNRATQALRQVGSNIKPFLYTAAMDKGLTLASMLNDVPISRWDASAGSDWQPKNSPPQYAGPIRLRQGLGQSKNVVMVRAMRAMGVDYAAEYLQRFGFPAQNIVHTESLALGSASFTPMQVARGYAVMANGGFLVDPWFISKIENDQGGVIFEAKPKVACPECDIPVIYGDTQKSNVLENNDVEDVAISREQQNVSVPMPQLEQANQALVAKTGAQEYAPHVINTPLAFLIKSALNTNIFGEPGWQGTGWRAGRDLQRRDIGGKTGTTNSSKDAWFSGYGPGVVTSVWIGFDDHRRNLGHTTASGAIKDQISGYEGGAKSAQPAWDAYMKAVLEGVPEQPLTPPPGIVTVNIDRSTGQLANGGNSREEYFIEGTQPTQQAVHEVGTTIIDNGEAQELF

Compound: CCN1CCN(C(=O)NC(C(=O)N[C@H]2Cc3cccc(C(=O)O)c3OB2O)c2ccc(OC)nc2)C(=O)C1=O (stereo partly drawn) [Example 34, (3R)-3-(2-(4-ethyl-2,3-dioxopiperazine-1-carboxamido)-2-(6-methoxypyridin-3-yl)acetamido)-2-hydroxy-3,4-dihydro-2H-benzo[e][1,2]oxaborinine-8-carboxylic acid]
- EC50 [1]: 30 to 500 µM
- MIC [2]: 128 to 256 mg/L (≈ 237 to 475 µM)
- MIC [3]: 128 to 256 mg/L (≈ 237 to 475 µM)
- EC50 [4]: < 10 µM
- EC50 [5]: > 500 µM

Compound: CCN1C[C@H](CCN)N(C(=O)NC(C(=O)N[C@H]2Cc3cccc(C(=O)O)c3OB2O)c2ncc(O)cc2F)C(=O)C1=O (stereo partly drawn) [Example 240, (3R)-3-(2-((S)-6-(2-aminoethyl)-4-ethyl-2,3-dioxopiperazine-1-carboxamido)-2-(3-fluoro-5-hydroxypyridin-2-yl)acetamido)-2-hydroxy-3,4-dihydro-2H-benzo[e][1,2]oxaborinine-8-carboxylic acid]
- MIC [6]: > 128 µg/mL
- MIC [7]: > 128 µg/mL
- MIC ([8]; ATCC27853, read-out: MIC P. aeruginosa ATCC 27853): > 128 µg/mL
- MIC [9]: 8 to 16 µg/mL
- MIC [10]: > 128 µg/mL
- MIC [11]: 8 to 16 µg/mL
- MIC [12]: > 128 µg/mL
- MIC [13]: 8 to 16 µg/mL
- MIC [14]: > 128 µg/mL
- MIC [15]: 8 to 16 µg/mL
- MIC ([16]; ATCC19606, read-out: MIC A. baumannii ATCC 19606): > 128 µg/mL
- MIC ([17]; ATCC25922, read-out: MIC E. coli 25922): > 128 µg/mL

Compound: CCN1CCN(C(=O)NC(C(=O)N[C@H]2Cc3cccc(C(=O)O)c3OB2O)c2ncc(C(N)=O)cc2F)C(=O)C1=O (stereo partly drawn) [Example 246, (3R)-3-(2-(5-carbamoyl-3-fluoropyridin-2-yl)-2-(4-ethyl-2,3-dioxopiperazine-1-carboxamido)acetamido)-2-hydroxy-3,4-dihydro-2H-benzo[e][1,2]oxaborinine-8-carboxylic acid]
- EC50 [1]: 30 to 500 µM
- MIC [7]: > 128 µg/mL
- MIC [8, 18]: > 128 µg/mL
- MIC [9]: 2 to 4 µg/mL
- MIC [10]: > 128 µg/mL
- MIC [11]: 32 to 64 µg/mL
- MIC [12]: > 128 µg/mL
- MIC [13]: 32 to 64 µg/mL
- MIC [14]: 32 to 64 µg/mL
- MIC [15]: 2 to 4 µg/mL
- MIC [16, 19]: > 128 µg/mL
- MIC [17, 20]: > 128 µg/mL

Compound: CCN1CCN(C(=O)NC(C(=O)N[C@H]2Cc3cccc(C(=O)O)c3OB2O)c2ccc(O)c([N+](=O)[O-])c2)C(=O)C1=O (stereo partly drawn) [Example 247, (3R)-3-(2-(4-ethyl-2,3-dioxopiperazine-1-carboxamido)-2-(4-hydroxy-3-nitrophenyl)acetamido)-2-hydroxy-3,4-dihydro-2H-benzo[e][1,2]oxaborinine-8-carboxylic acid]
- EC50 ([1]; fluorescence polarization competition binding with Bocillin-FL, read-out: E. coli K12 PBP3 Potency): < 30 µM
- MIC [7]: 32 to 64 µg/mL
- MIC [8, 18]: > 128 µg/mL
- MIC [9]: < 0.25 µg/mL
- MIC [10]: > 128 µg/mL
- MIC [11]: 2 to 4 µg/mL
- MIC [12]: > 128 µg/mL
- MIC [13]: 2 to 4 µg/mL
- MIC [14]: 8 to 16 µg/mL
- MIC [15]: 0.5 to 1 µg/mL
- MIC [16, 19]: > 128 µg/mL
- MIC [17, 20]: 32 to 64 µg/mL
